Measurements as given in PubChem BioAssay AID651974 (The Scripps Research Institute Molecular Screening Center, 2013).
The source made the active and inactive calls. No rule for the calls is given here.

Test: compounds lowering VP16-driven luciferase output – cell-based, luminescence, dose response, counter-screen for LRH-1 inverse agonist project, late-stage follow-up (AID 651974)
Settings: HEK293 cells transfected with Gal4-VP16 and pGL4.31 luciferase reporter

Row | SMILES | IC50
1 | Cc1ccc(NC(=O)CSc2nc3[nH]c(=O)cc(O)c3s2)c(Br)c1 | > 35.9 µM (inactive)
2 | COCCn1c(C)cc(/C=C(\C#N)C(=O)OCC(=O)Nc2ccc(S(N)(=O)=O)cc2)c1C | > 35.9 µM (inactive)
3 | O=C(CSc1nc(=O)n2cc(Cl)ccc2n1)Nc1ccc2c(c1)OCCO2 | > 35.9 µM (inactive)
4 | CC(=O)c1ccc(OC(C)C(=O)OCC(=O)NCCc2ccccc2)cc1 (centres undefined) | > 35.9 µM (inactive)
